Assay results as given in patent US20220146526A1, “METHOD FOR EVALUATING SAMPLE, ANALYSIS METHOD, METHOD FOR DETECTING DEGRADED SAMPLE, MARKER FOR DETECTING DEGRADED BLOOD PLASMA SAMPLE, AND MARKER FOR DETECTING DEGRADED SERUM SAMPLE” (SHIMADZU CORPORATION, priority 2019, published 2022).

Experiments:
Type in all cases: physicochemical, human
[1] = LC/MS of serum sample: time from blood collection to centrifugation (Table J); details: for Increase or decrease / Time when compound is affected: serum sample, LC/MS; for Increase or decrease: detection intensity vs 15 minutes from blood collection to centrifugation; for Time when compound is affected: time from blood collection to centrifugation, detection intensity changed by 30% or more vs 15 minutes
In short: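 Detection intensities are expressed relative to 1 for samples centrifuged 15 min after blood collection; centrifugation was at room temperature, 3500 rpm, 5 min. Frozen serum was run by electrospray LC-MS in MRM mode, with 0.1% formic acid water/acetonitrile at 0.25 mL/min on a 40 °C F5 column.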

[2] = GC/MS of serum sample: time from blood collection to centrifugation (Table G); details: for Increase or decrease: detection intensity, after 4 hours vs 15 minutes; for Increase or decrease / Rate of increase or decrease: blood collection to centrifugation; for Rate of increase or decrease: detection intensity relative to 1 at 15 minutes
In short: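 Values express detection intensity as a ratio to the sample centrifuged 15 minutes after blood collection (taken as 1). Serum was derivatized by methoxymation and trimethylsilylation, then analysed by electron-ionization GC/MS using multiple reaction monitoring on a BPX5 column ramped from 60 to 330° C.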

[3] = LC/MS of serum sample: number of times of freezing and thawing (Table M); design: key to Rate of increase or decrease: detection intensity relative to 1 at 2 freeze-thaw cycles; details: for Number of times when compound is affected / Increase or decrease: serum sample, LC/MS; for Number of times when compound is affected: detection intensity changed by 30% or more vs 2 times of freezing and thawing; for Increase or decrease: detection intensity vs 2 times of freezing and thawing
In short: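 Values are detection intensities relative to serum thawed twice, versus 4, 6 or 10 freeze-thaw cycles. Serum came from blood spun at room temperature, 3500 rpm for 5 minutes. Analysis: electrospray LC/MS in MRM mode, Discovery HS F5-3 column, 40° C, 0.1% formic acid in water and acetonitrile.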

[4] = LC/MS of blood plasma sample: number of times of freezing and thawing (Table F); details: for Rate of increase or decrease: detection intensity relative to 1 at 2 times; for Increase or decrease: detection intensity
In short: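 Values are detection intensities normalised to 1 for plasma thawed twice, compared against 4, 6 and 10 freeze-thaw cycles. Measured by electrospray LC/MS in MRM mode, formic acid water/acetonitrile mobile phase, column at 40° C. Plasma came from EDTA blood, cooled to 4° C and spun at 3000 rpm for 15 min.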

[5] = GC/MS of serum sample: time from centrifugation to isolation (Table H); design: key to Rate of increase or decrease / Rate of increase or decrease (first value, increase): detection intensity relative to 1 at 30 min centrifugation-to-isolation; details: for Rate of increase or decrease: detection intensity relative to 1 at 30 minutes; for Increase or decrease: detection intensity
In short: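 Values are GC/MS (EI, MRM) detection intensities of methoxymated/trimethylsilylated serum, normalised to 1 for the 30-min sample. Serum was isolated 30 min, 1 h or 6 h after room-temperature centrifugation (3500 rpm, 5 min) of blood.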

[6] = GC/MS of blood plasma sample: time from blood collection to centrifugation (Table A); details: for Rate of increase or decrease: detection intensity relative to 1 at 15 minutes; for Rate of increase or decrease / Increase or decrease: blood collection to centrifugation; for Increase or decrease: detection intensity, after 4 hours vs 15 minutes
In short: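 Read-out is MRM detection intensity by electron-ionization GC/MS on a BPX5 column after methoxymation and trimethylsilylation, expressed relative to a 15-minute collection-to-centrifugation interval. Plasma was prepared from EDTA blood held at 4° C and spun at 4° C, 3000 rpm for 15 minutes, then frozen.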

[7] = GC/MS of blood plasma sample: number of times of freezing and thawing (Table C); details: for Rate of increase or decrease: detection intensity relative to 1 at 2 times; for Increase or decrease: detection intensity
In short: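 Values express detection intensity as a ratio to the 2-cycle freeze-thaw sample (=1), compared with 4, 6 and 10 cycles. Healthy-donor EDTA plasma, cooled at ≤1 min or ≥5 min, spun at 4 °C, 3000 rpm, 15 min. Derivatised by methoxymation/trimethylsilylation; GC-MS/MS in MRM mode with electron ionization.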

[8] = GC/MS of serum sample: number of times of freezing and thawing (Table I); design: key to Rate of increase or decrease / Rate of increase or decrease (first value, increase): detection intensity relative to 2 freeze-thaw cycles = 1
In short: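 Detection intensities are ratios to the value after two freeze–thaw cycles, which is set as 1, compared against 4, 6 and 10 cycles. Analysis used methoxymation and trimethylsilylation derivatization, then GC/MS with EI ionization and multiple reaction monitoring on a BPX5 column. Serum came from blood held at room temperature and spun at 3500 rpm for 5 min.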

[9] = different from individual to individual, individuals with decrease, relative to 1 at 15 minutes, collection to centrifugation, after 4 hours
[10] = different from individual to individual, individuals with increase, relative to 1 at 15 minutes, collection to centrifugation, after 4 hours
[11] = freezing and thawing 10 times vs 2 times
[12] = freezing and thawing 4 times vs 2 times
[13] = after 4 hours from blood collection to centrifugation, detection intensity relative to 1 at 15 minutes
[14] = 4 times of freezing and thawing, relative to 1 at 2 times, different from individual to individual, first value (increase)
[15] = 4 times of freezing and thawing, relative to 1 at 2 times, different from individual to individual, second value (decrease)
[16] = freezing and thawing 6 times vs 2 times

Increase or decrease [1] | Time when compound is affected [1] | Increase or decrease [2] | Number of times when compound is affected [3] [times] | Increase or decrease [3] | Rate of increase or decrease ([5]; after 1 hour) | Increase or decrease ([5]; after 1 hour vs 30 minutes) | Rate of increase or decrease ([6]; after 4 hours) | Increase or decrease [6] | Rate of increase or decrease ([2]; after 4 hours) | Rate of increase or decrease ([4]; freezing and thawing 4 times) | Increase or decrease [4, 12] | Rate of increase or decrease [1, 13] | Rate of increase or decrease [3, 14] | Rate of increase or decrease [3, 15] | Compound | further results
Increase | After 12 hours | Different from individual | 10 | Decrease | 0.66 | Decrease | 3.15 | Increase |  |  |  |  |  |  | CC(C)(CO)[C@@H](O)C(=O)NCCC(=O)O [Pantothenic acid] | Rate of increase or decrease ([1]; after 12 hours from blood collection to centrifugation, detection intensity relative to 1 at 15 minutes): 1.43; Rate of increase or decrease (second value, decrease) [2, 9]: 0.51; Rate of increase or decrease (first value, increase) [2, 10]: 1.78; Rate of increase or decrease ([3]; 10 times of freezing and thawing, detection intensity relative to 1 at 2 times): 0.55; Rate of increase or decrease ([4]; freezing and thawing 10 times): 1.43; Increase or decrease [4, 11]: Increase; Rate of increase or decrease ([7]; freezing and thawing 4 times): 3.07; Increase or decrease [7, 12]: Increase; Rate of increase or decrease ([8]; detection intensity relative to 1 at 2 times, serum, GC/MS, freezing and thawing 4 times): 1.39; Increase or decrease ([8]; detection intensity, serum, GC/MS, freezing and thawing 4 times vs 2 times): Increase
Different from individual | After 4 hours | Increase | 4 | Increase |  |  | 0.18 | Decrease | 1.67 | 0.55 | Decrease |  |  |  | NC(=O)NC1NC(=O)NC1=O (stereo not shown) [Allantoin] | Rate of increase or decrease ([1]; after 4 hours, relative to 1 at 15 minutes, different from individual to individual, first value (increase)): 1.78; Rate of increase or decrease ([1]; after 4 hours, relative to 1 at 15 minutes, different from individual to individual, second value (decrease)): 0.40; Rate of increase or decrease ([3]; 4 times of freezing and thawing, detection intensity relative to 1 at 2 times): 3.27; Rate of increase or decrease ([5]; after 6 hours): 3.00; Increase or decrease ([5]; after 6 hours vs 30 minutes): Increase; Rate of increase or decrease ([7]; freezing and thawing 10 times): 1.42; Increase or decrease [7, 11]: Increase; Rate of increase or decrease ([8]; detection intensity relative to 1 at 2 times, serum, GC/MS, freezing and thawing 10 times): 2.94; Increase or decrease ([8]; detection intensity, serum, GC/MS, freezing and thawing 10 times vs 2 times): Increase
Increase | After 4 hours | Increase | 4 | Different from individual | 1.36 | Increase |  |  | 2.11 |  |  | 2.24 | 1.35 | 0.61 | O=c1[nH]cnc2nc[nH]c12 [Hypoxanthine] | Rate of increase or decrease ([4]; freezing and thawing 6 times): 2.04; Increase or decrease [4, 16]: Increase; Rate of increase or decrease ([8]; 10 times of freezing and thawing, relative to 1 at 2 times, different from individual to individual, first value (increase)): 1.47; Rate of increase or decrease ([8]; 10 times of freezing and thawing, relative to 1 at 2 times, different from individual to individual, second value (decrease)): 0.66; Number of times when compound is affected ([8]; serum sample, GC/MS, detection intensity changed by 30% or more vs 2 times of freezing and thawing): 10 times; Increase or decrease ([8]; serum sample, GC/MS, detection intensity vs 2 times of freezing and thawing): Different from individual
Increase | After 4 hours |  | 4 | Different from individual |  |  |  | Different from individual |  | 1.77 | Increase | 1.92 | 1.37 | 0.70 | O=c1[nH]c(=O)c2[nH]cnc2[nH]1 [Xanthine] | Rate of increase or decrease (second value, decrease) [6, 9]: 0.49; Rate of increase or decrease (first value, increase) [6, 10]: 1.83; Increase or decrease [7, 16]: Different from individual; Rate of increase or decrease (second value, decrease) ([7]; different from individual to individual, individuals with decrease, relative to 1 at 2 times, freezing and thawing 6 times): 0.51; Rate of increase or decrease (first value, increase) ([7]; different from individual to individual, individuals with increase, relative to 1 at 2 times, freezing and thawing 6 times): 2.21
